Experimental data from patent US20250340561A1, “QUINAZOLINE COMPOUND FOR INDUCING DEGRADATION OF G12D MUTANT KRAS PROTEIN” (Astellas Pharma Inc., priority 2021, published 2025).
Like-named read-outs stand apart in the source and are kept apart here. Values belong to the compound of their own block, whether it stands above or below them.

Assays:
[1] = test system: phosphorylation of ERK (Thr202/Tyr204); test: Test Example 2: ERK phosphorylation inhibition action in AsPC-1, Cell ELISA; format: cell-based, human; conditions: Homo sapiens, ASPC1, 24 h, AsPC-1 cells, 0% = 1 μM trametinib
Protocol: Test Example 2: Evaluation of ERK Phosphorylation Inhibition Action on Human G12D Mutant KRAS-Positive Pancreatic Cancer Line AsPC-1
The ERK phosphorylation inhibition action of test compounds was evaluated by measuring phosphorylation of the 202th threonine (Thr202) and the 204th tyrosine (Tyr204) of ERK located downstream of the KRAS signal by Cell ELISA.
AsPC-1 cells were seeded on a 384-well plate (from Greiner bio-one) at 36 μL/well to give 2.0×10^4 cells per well. As for the cell culture conditions, a RPMI 1640 medium containing 10% fetal bovine serum was used in the presence of 5% CO2 at 37° C.
The next day, the test compounds (6 points having final concentrations in the range of 10 μM to 3.0 nM), trametinib (MEK inhibitor) of a final concentration of 1 μM as a positive control and DMSO, which was the solvent for the test compounds, as a negative control were diluted 100-fold with a fresh medium and were added at 4 μL per well. The cells were then cultured for 24 hours. After culturing, a 30% glyoxal solution (40% glyoxal [from Nacalai Tesque] was diluted with PBS) was quickly added at 30 μL per well, and the plate was allowed to stand for 90 minutes at room temperature to thus immobilize the cells. Then, the plate was centrifuged to remove the supernatant (using a centrifugal dehydrator machine, the supernatant was removed by the same method hereinafter), and 0.1% Triton X-100-containing PBS was added at 20 μL per well. After allowing to stand for 10 minutes at room temperature, the supernatant was removed by centrifugation, and the same operation was further repeated. Next, 0.5% SDS-containing PBS was added at 20 μL per well, and after allowing to stand at room temperature for 30 minutes, the supernatant was removed by centrifugation. Subsequently, a blocking solution (Intercept Blocking Buffer) was added at 20 μL per well, and the plate was allowed to stand for 1 hour at room temperature. The supernatant was removed by centrifugation, and an ERK (Thr202/Tyr204) phosphorylation antibody (Phospho-p44/42 MAPK (Erk 1/2) (Thr202/Tyr204) (D13.14.4E) XP Rabbit mAb; from Cell Signaling Technology) diluted 2,500-fold with a blocking solution was added at 10 or 15 μL per well as a primary antibody. The plate was allowed to stand at 4° C. overnight.
The next day, the plate was centrifuged to remove the supernatant. 0.05% Tween-20-containing PBS was added at 50 μL per well, and the supernatant was removed by centrifugation to thus wash each well. The washing was performed three times in total. After washing, Goat anti-Rabbit IgG H&L (IRDye 800CW) diluted 1,000-fold with a blocking solution was added at […] as a secondary antibody, and the plate was allowed to stand for 1 hour at room temperature. The plate was centrifuged to remove the supernatant, and each well was washed three times with 0.05% Tween-20-containing PBS in the same manner as after the primary antibody reaction. After removing the supernatant by centrifuging the plate, the plate was dried as it was with air at room temperature for 3 hours or more, and the 800-nm fluorescent signals were measured with Aerius.
With the signaling value at the time of addition of DMSO taken as 100% and with the signaling value at the time of addition of 1 μM trametinib taken as 0%, the 50% inhibition values (IC50) were calculated by Sigmoid-Emax model nonlinear regression analysis. The molecular weights of the test compounds were calculated as the molecular weights of the dihydrochloride for Example No. 22, the trihydrochlorides for Example Nos. 2-7, 9-12, 14-18 and 30, the tetrahydrochlorides for Example Nos. 19 and 46, the pentahydrochloride for Example No. 21 and the free forms forming no salt for the remaining Example Nos. The results for some test compounds of the formula (I) are shown in Table 3.

[2] = test system: human G12D mutant KRAS-positive pancreatic cancer line AsPC-1; test: Test Example 3: non-anchorage-dependent cell growth inhibition, spheroid 3D cell culture; format: cell-based; conditions: Homo sapiens, ASPC1, 144 h, AsPC-1 spheroid 3D culture, 6 days, CellTiter Glo 2.0
Protocol: Test Example 3: Evaluation of Non-Anchorage-Dependent Cell Growth Inhibition Action on Human G12D Mutant KRAS-Positive Pancreatic Cancer Line AsPC-1
The non-anchorage-dependent cell growth inhibition action of test compounds was evaluated by spheroid 3D cell culture.
AsPC-1 cells were seeded on a low-cell-adhesive round bottom 384-well plate (PrimeSurface: from Sumitomo Bakelite) at 36 μL/well to give 5×10^2 cells per well. The cell culture was performed under the same conditions as in the Test Example 2.
The next day, the test compounds (6 points having final concentrations in the range of 10 μM to 3.0 nM) and DMSO, which was the solvent for the test compounds, as a negative control were diluted 100-fold with a fresh medium and were added at 4 μL per well. After culturing in the presence of […] at 37° C. for 6 days, CellTiter Glo 2.0 (from Promega) was added at 20 μL per well. After stirring with a plate mixer (from FINEPCR) at normal temperature for 1 hour, the luminescent signals were measured with ARVO X3 (from PerkinElmer).
With the signaling value in treatment with DMSO taken as […] and with the signaling value in the medium alone without cells taken as […], the […] inhibition values (IC50) were calculated by Sigmoid-Emax model nonlinear regression analysis. The molecular weights of the test compounds were calculated as the molecular weights of the dihydrochloride for Example No. 22, the trihydrochlorides for Example Nos. 2-7, 9-12, 14-18 and 30, the tetrahydrochlorides for Example Nos. 19 and 46, the pentahydrochloride for Example No. 21 and the free forms forming no salt for the remaining Example Nos. The results for some test compounds of the formula (I) are shown in Table 4.

Structure (SMILES): Cc1ncsc1-c1ccc([C@H](CO)NC(=O)[C@@H]2C[C@@H](O)CN2C(=O)[C@H](C(C)C)n2cc(-c3ccc(COc4c(-c5c(C)c(F)cc6[nH]ncc56)c(C5CC5)cc5c(N6C[C@@H]7C[C@H]6CN7)nc(OC[C@H](C)N6CCCC6)nc45)cc3)nn2)cc1 [Example 64]
IC50 [1]: 80 nM
IC50 [2]: 245 nM

Structure (SMILES): Cc1ncsc1-c1ccc([C@H](CO)NC(=O)[C@@H]2C[C@@H](O)CN2C(=O)[C@H](C(C)C)n2cc(-c3ccc(COc4c(-c5c(C)c(F)cc6[nH]ncc56)c(C5CC5)cc5c(N6C[C@@H]7C[C@H]6CN7)nc(O[C@@H]6CCOC6)nc45)cc3)nn2)cc1 [Example 28]
IC50 [1]: 12 nM
IC50 [2]: 37 nM

Structure (SMILES): Cc1ncsc1-c1ccc([C@H](CO)NC(=O)[C@@H]2C[C@@H](O)CN2C(=O)[C@H](C(C)C)N2Cc3cc(COc4c(-c5c(C)c(F)cc6[nH]ncc56)c(C5CC5)cc5c(N6C[C@@H]7C[C@H]6CN7)nc(OC6CCOCC6)nc45)ccc3C2=O)cc1 [Example 4]
IC50 [1]: 522 nM
IC50 [2]: 670 nM

Structure (SMILES): CCn1nccc1-c1ccc([C@H](CO)NC(=O)[C@@H]2C[C@@H](O)CN2C(=O)[C@H](C(C)C)n2cc(-c3ccc(COc4c(-c5c(C)c(F)cc6[nH]ncc56)c(C5CC5)cc5c(N6C[C@@H]7C[C@H]6CN7)nc(OC6CCOCC6)nc45)cc3)nn2)cc1 [Example 26]
IC50 [1]: 8 nM
IC50 [2]: 20 nM

Structure (SMILES): Cc1ncsc1-c1ccc([C@H](CO)NC(=O)[C@@H]2C[C@@H](O)CN2C(=O)[C@@H](NC(=O)c2ccc(COc3c(-c4c(C)c(F)cc5[nH]ncc45)c(C4CC4)cc4c(N5C[C@@H]6C[C@H]5CN6)nc(OC5CCOCC5)nc34)cc2)C(C)C)cc1 [Example 3]
IC50 [1]: 62 nM
IC50 [2]: 108 nM

Structure (SMILES): Cc1ncsc1-c1ccc([C@H](CO)NC(=O)[C@@H]2C[C@@H](O)CN2C(=O)[C@H](C(C)C)n2cc(-c3ccc(COc4c(-c5c(C)c(F)cc6[nH]ncc56)c(C5CC5)cc5c(N6C[C@@H]7C[C@H]6CN7)nc(O[C@H]6CCOC6)nc45)cc3)nn2)cc1 [Example 29]
IC50 [1]: 15 nM
IC50 [2]: 42 nM

Structure (SMILES): CO[C@@H](C)COc1nc(N2C[C@@H]3C[C@H]2CN3)c2cc(C3CC3)c(-c3c(C)c(F)cc4[nH]ncc34)c(OCc3ccc(-c4cn([C@H](C(=O)N5C[C@H](O)C[C@H]5C(=O)N[C@@H](CO)c5ccc(F)cc5)C(C)C)nn4)cc3)c2n1 [Example 58]
IC50 [1]: 25 nM
IC50 [2]: 80 nM

Structure (SMILES): Cc1ncsc1-c1ccc([C@H](CO)NC(=O)[C@@H]2C[C@@H](O)CN2C(=O)[C@H](C(C)C)n2cc(-c3ccc(COc4c(-c5cc(O)cc(F)c5C)c(C5CC5)cc5c(N6C[C@@H]7C[C@H]6CN7)nc(OC6CCOCC6)nc45)cc3)nn2)cc1 [Example 15]
IC50 [1]: 22 nM
IC50 [2]: 64 nM

Structure (SMILES): COCCN1CC[C@H](Oc2nc(N3C[C@@H]4C[C@H]3CN4)c3cc(C4CC4)c(-c4c(C)c(F)cc5[nH]ncc45)c(OCc4ccc(-c5cn([C@H](C(=O)N6C[C@H](O)C[C@H]6C(=O)N[C@@H](CO)c6ccc(-c7scnc7C)cc6)C(C)C)nn5)cc4)c3n2)C1 [Example 32]
IC50 [1]: 92 nM
IC50 [2]: 186 nM

Structure (SMILES): CO[C@@H](C)[C@H](C)Oc1nc(N2C[C@@H]3C[C@H]2CN3)c2cc(C3CC3)c(-c3c(C)c(F)cc4[nH]ncc34)c(OCc3ccc(-c4cn([C@H](C(=O)N5C[C@H](O)C[C@H]5C(=O)N[C@@H](CO)c5ccc(-c6scnc6C)cc5)C(C)C)nn4)cc3)c2n1 [Example 41]
IC50 [1]: 17 nM
IC50 [2]: 31 nM

IC50 ([1]; read-out: IC50): 38 nM
IC50 ([2]; read-out: IC50): 51 nM
Structure (SMILES): CO[C@@H](C)COc1nc(N2C[C@@H]3C[C@H]2CN3)c2cc(C3CC3)c(-c3c(C)c(F)cc4[nH]ncc34)c(OCc3ccc(-c4cn([C@H](C(=O)N5C[C@H](O)C[C@H]5C(=O)N[C@@H](CO)c5ccc(-n6ccnc6C)cc5)C(C)C)nn4)cc3)c2n1 [Example 71]

Structure (SMILES): Cc1ncsc1-c1ccc([C@H](C)NC(=O)[C@@H]2C[C@@H](O)CN2C(=O)[C@H](C(C)C)n2cc(-c3ccc(COc4c(-c5c(C)c(F)cc6[nH]ncc56)c(C5CC5)cc5c(N6C[C@@H]7C[C@H]6CN7)nc(OC6CCOCC6)nc45)cc3)nn2)cc1 [Example 9]
IC50 [1]: 18 nM
IC50 [2]: 96 nM

IC50 ([1]; read-out: IC50): 12 nM
IC50 ([2]; read-out: IC50): 21 nM
Structure (SMILES): CCn1nccc1-c1ccc([C@H](CO)NC(=O)[C@@H]2C[C@@H](O)CN2C(=O)[C@H](C(C)C)n2cc(-c3ccc(COc4c(-c5c(C)c(F)cc6[nH]ncc56)c(C5CC5)cc5c(N6C[C@@H]7C[C@H]6CN7)nc(OC[C@H](C)OC)nc45)cc3)nn2)cc1 [Example 70]

Structure (SMILES): Cc1c(F)cc2[nH]ncc2c1-c1c(C2CC2)cc2c(N3C[C@@H]4C[C@H]3CN4)nc(OC3CCOCC3)nc2c1OCc1ccc(-c2cn([C@H](C(=O)N3C[C@H](O)C[C@H]3C(=O)N[C@@H](CO)c3ccccc3F)C(C)C)nn2)cc1 [Example 30]
IC50 [1]: 185 nM
IC50 [2]: 323 nM

Structure (SMILES): Cc1ncsc1-c1ccc([C@H](CO)NC(=O)[C@@H]2C[C@@H](O)CN2C(=O)[C@H](C(C)C)n2cc(-c3ccc(COc4c(-c5c(C)c(F)cc6[nH]ncc56)c(C5CC5)cc5c(N6C[C@@H]7C[C@H]6CN7)nc(OCC6(CO)CCOCC6)nc45)cc3)nn2)cc1 (atropisomer, axis not shown) [Example 36]
IC50 [1]: 31 nM
IC50 [2]: 24 nM

Structure (SMILES): Cc1c(F)cc2[nH]ncc2c1-c1c(C2CC2)cc2c(N3C[C@@H]4C[C@H]3CN4)nc(OC3CCOCC3)nc2c1OCc1ccc(-c2cn([C@H](C(=O)N3C[C@H](O)C[C@H]3C(=O)N[C@@H](CO)c3cccc(F)c3)C(C)C)nn2)cc1 [Example 63]
IC50 [1]: 72 nM
IC50 [2]: 133 nM

Structure (SMILES): CO[C@@H](C)COc1nc(N2C[C@@H]3C[C@H]2CN3)c2cc(C3CC3)c(-c3c(C)c(F)cc4[nH]ncc34)c(OCc3ccc(-c4cn([C@H](C(=O)N5C[C@H](O)C[C@H]5C(=O)N[C@@H](CO)c5ccc(N6CCOC6=O)cc5)C(C)C)nn4)cc3)c2n1 [Example 59]
IC50 [1]: 26 nM
IC50 [2]: 70 nM

Structure (SMILES): Cc1ncsc1-c1ccc([C@H](CO)NC(=O)[C@@H]2C[C@@H](O)CN2C(=O)[C@H](C(C)C)n2cc(-c3ccc(COc4c(-c5c(C)c(F)cc6[nH]ncc56)c(C5CC5)cc5c(N6C[C@@H]7C[C@H]6CN7)nc(O[C@H]6CCN(CCO)C6)nc45)cc3)nn2)cc1 [Example 31]
IC50 [1]: 194 nM
IC50 [2]: 321 nM

Structure (SMILES): CC[C@@H](C)Oc1nc(N2C[C@@H]3C[C@H]2CN3)c2cc(C3CC3)c(-c3c(C)c(F)cc4[nH]ncc34)c(OCc3ccc(-c4cn([C@H](C(=O)N5C[C@H](O)C[C@H]5C(=O)N[C@@H](CO)c5ccc(-c6scnc6C)cc5)C(C)C)nn4)cc3)c2n1 [Example 43]
IC50 [1]: 11 nM
IC50 [2]: 16 nM
